Test results published in the NIST ThermoML archive (doi:10.1016/j.tca.2011.08.025).
± gives the expanded uncertainty stated by the source.

Assay: molar heat capacity at constant pressure
Conditions: 101.33 kPa, Crystal, Relaxation calorimetry

[Nd] [neodymium]
Conditions | molar heat capacity at constant pressure [J/K/mol]
2.151 K | 0.8396 ± 0.018
2.367 K | 1.016 ± 0.019
2.581 K | 1.201 ± 0.019
2.795 K | 1.394 ± 0.02
3.01 K | 1.604 ± 0.02
3.226 K | 1.824 ± 0.021
3.438 K | 2.061 ± 0.022
3.649 K | 2.3 ± 0.023
3.86 K | 2.548 ± 0.024
4.072 K | 2.809 ± 0.025
4.282 K | 3.093 ± 0.026
4.49 K | 3.38 ± 0.027
4.705 K | 3.673 ± 0.026
4.913 K | 3.971 ± 0.026
5.122 K | 4.282 ± 0.025
5.177 K | 4.343 ± 0.025
5.328 K | 4.571 ± 0.024
5.524 K | 4.815 ± 0.024
5.736 K | 5.023 ± 0.021
5.948 K | 5.221 ± 0.02
6.156 K | 5.44 ± 0.019
6.362 K | 5.633 ± 0.018
6.569 K | 5.743 ± 0.018
6.774 K | 5.889 ± 0.018
6.98 K | 6.064 ± 0.017
7.186 K | 6.234 ± 0.015
7.391 K | 6.437 ± 0.01
7.596 K | 6.646 ± 0.005
7.801 K | 6.846 ± 0.001
8.006 K | 7.013 ± 0.003
8.204 K | 6.953 ± 0.006
8.407 K | 6.62 ± 0.008
8.613 K | 6.23 ± 0.011
8.819 K | 5.945 ± 0.013
9.025 K | 5.776 ± 0.014
9.228 K | 5.667 ± 0.014
9.431 K | 5.598 ± 0.01
9.437 K | 5.599 ± 0.01
9.634 K | 5.571 ± 0.006
9.84 K | 5.554 ± 0.002
10.04 K | 5.573 ± 0.001
10.2 K | 5.561 ± 0.002
10.39 K | 5.603 ± 0.004
10.6 K | 5.69 ± 0.005
10.81 K | 5.744 ± 0.006
11.01 K | 5.812 ± 0.007
11.21 K | 5.88 ± 0.008
11.41 K | 5.952 ± 0.008
11.63 K | 6.046 ± 0.009
11.84 K | 6.143 ± 0.009
12.03 K | 6.237 ± 0.01
12.24 K | 6.337 ± 0.01
12.44 K | 6.442 ± 0.011
12.66 K | 6.573 ± 0.011
12.86 K | 6.675 ± 0.01
13.06 K | 6.796 ± 0.012
13.26 K | 6.922 ± 0.013
13.47 K | 7.055 ± 0.013
13.68 K | 7.208 ± 0.013
13.77 K | 7.145 ± 0.013
13.88 K | 7.299 ± 0.013
14.1 K | 7.441 ± 0.014
14.28 K | 7.621 ± 0.014
14.48 K | 7.747 ± 0.014
14.69 K | 7.885 ± 0.016
14.92 K | 8.025 ± 0.015
15.12 K | 8.197 ± 0.015
15.23 K | 8.285 ± 0.015
15.32 K | 8.377 ± 0.015
15.77 K | 8.706 ± 0.017
16.3 K | 9.115 ± 0.017
16.83 K | 9.61 ± 0.017
17.36 K | 10.08 ± 0.02
17.88 K | 10.46 ± 0.02
18.09 K | 10.52 ± 0.02
18.42 K | 10.87 ± 0.02
18.95 K | 11.22 ± 0.01
19.48 K | 11.63 ± 0.01
20.09 K | 11.62 ± 0.01
20.59 K | 11.44 ± 0.01
21.1 K | 10.32 ± 0.01
21.61 K | 10.49 ± 0.01
22.17 K | 11.13 ± 0.02
22.39 K | 11.25 ± 0.02
26.7 K | 13.57 ± 0.01
31.01 K | 15.8 ± 0.01
35.3 K | 17.93 ± 0.01
39.6 K | 19.66 ± 0.01
43.89 K | 21.19 ± 0.01
48.19 K | 22.54 ± 0.01
52.48 K | 23.47 ± 0.01
56.77 K | 24.17 ± 0.01
61.06 K | 24.73 ± 0.01
65.35 K | 25.19 ± 0.01
69.65 K | 25.58 ± 0.01
73.95 K | 25.83 ± 0.01
78.25 K | 25.98 ± 0.01
82.54 K | 26.16 ± 0.01
86.85 K | 26.23 ± 0.01
91.14 K | 26.36 ± 0.01
95.45 K | 26.37 ± 0.01
99.73 K | 26.49 ± 0.01
104 K | 26.61 ± 0.01
108.3 K | 26.65 ± 0.01
112.6 K | 26.74 ± 0.01
116.9 K | 26.72 ± 0.01
121.2 K | 26.78 ± 0.01
125.5 K | 26.72 ± 0.01
129.8 K | 26.67 ± 0.01
134 K | 26.77 ± 0.01
138.3 K | 26.81 ± 0.01
142.6 K | 26.97 ± 0.01
146.8 K | 26.95 ± 0.01
151.1 K | 27.04 ± 0.01
155.4 K | 27.01 ± 0.01
159.7 K | 26.93 ± 0.01
164 K | 26.99 ± 0.01
168.3 K | 27.12 ± 0.01
172.6 K | 27.08 ± 0.01
176.9 K | 27.2 ± 0.01
181.2 K | 27.26 ± 0.01
185.5 K | 27.14 ± 0.01
189.8 K | 27.14 ± 0.01
194.1 K | 27.14 ± 0.01
198.3 K | 27.21 ± 0.01
202.6 K | 27.44 ± 0.01
206.9 K | 27.36 ± 0.01
211.2 K | 27.35 ± 0.01
215.5 K | 27.48 ± 0.01
219.8 K | 27.48 ± 0.01
224.1 K | 27.64 ± 0.01
228.4 K | 27.65 ± 0.01
232.7 K | 27.61 ± 0.01
237 K | 27.52 ± 0.01
241.3 K | 27.5 ± 0.01
245.6 K | 27.95 ± 0.01
249.8 K | 27.71 ± 0.01
254.1 K | 27.92 ± 0.01
258.4 K | 27.8 ± 0.01
262.7 K | 27.77 ± 0.01
267 K | 27.72 ± 0.01
271.3 K | 28.15 ± 0.01
275.6 K | 27.76 ± 0.01
279.9 K | 28.06 ± 0.01
284.2 K | 28.25 ± 0.01
288.5 K | 28.11 ± 0.01
292.8 K | 28.27 ± 0.01
297.1 K | 28.29 ± 0.01
301.5 K | 28.22 ± 0.01
